Data on one molecule can be found in patent US20130023504A1, “Modulation of Prostaglandin/Cyclooxygenase Metabolic Pathways” (HUNTER-FLEMING LIMITED, priority 2006, published 2013).

SMILES strings stand for the structures. Marks after values point to notes of the source that are not given here.

In the assay the test system is rats with DSS-induced colitis. As to the kind of experiment: DSS-induced colitis in rats, 7-day i.p. pre-treatment. The class given is in vivo, rat. To be noted: for Body weight: DSS (5%) day 7-14. The text has this:
All experimental protocols and procedures were in agreement with the directive 86/609/CEE of the European Community, for the use of laboratory animals. Male Wistar rats (180-200 g), purchased from Charles River (L'Arbresle, France) were fed with rodent laboratory chow and were given water ad libitum.
After a 7-day adaptation period, animals were divided into two control groups (sham-control and 7β-hydroxy-EPIA-treated control group and two colitis groups (colitis and 7β-hydroxy-EPIA-treated colitis). 7β-Hydroxy-EPIA (0.01, 0.1, and 1 mg/kg body weight dissolved in DMSO) or DMSO alone (vehicle) was administered i.p. once a day for 7 days, from day 0 to day 7. Colitis was induced from day 7 to 14 by addition of DSS (molecular weight 36-50 kDa; MP Biomedicals, France) to drinking water. The two control groups received tap water only.
At day 9, 11, 13, 14, body weight, colon length, stool consistency, were recorded and fresh rectal bleeding evaluated by ocular inspection. The severity of colonic damage was blindly scored as described by Mabley et al., 2001, Inflamm. Res.; 50: 561-569) (0: well-formed pellets and no colon damage; 1: colon with a small amount of blood present mixed with feces; 2: colon with large amount of blood present with faeces; 3: colon filled with blood and no faeces).
A portion of the proximal colon (1 cm) was fixed in 4% formaldehyde (Labonord, Templemars, France) and embedded in paraffin. Tissue sections (5 μm) were prepared, thereafter cleared, hydrated and stained either with hematoxylin/eosin or with Alcian blue according to standard protocols for histological evaluation of colonic damage and mucus goblet cells content, respectively.
The colon was opened along the mesenteric border, and the epithelial cells were scrapped away with the blunt edge of a glass slide then weighed, washed and centrifuged. The pellet was homogenized in 9 volumes TKE buffer (10 mM Tris-HCl; 150 mM KCl; 1 mM EDTA; 0.25 mM PMSF, pH 7.4) and then frozen at −80° C. until further use. The protein content of homogenates were measured according to Lowry et al. (J Biol Chem 1951; 193: 265-74).
MPO activity was assessed in homogenates using the o-dianisidine method of Krawisz et al. (Gastroenterology 1984; 87(6):1344-50) with the modifications of Pelissier et al. (Steroids 2006; 71(3):240-8). MPO activity was expressed as the amount of enzyme necessary to produce a per minute change in absorbance at 460 nm using the extinction coefficient for oxidized o-dianisidine (1.13×10^4 mol^−1.cm^−1).
Lipid peroxidation (Tbars) was measured by a modification by Albrecht et al., (1992, Toxicol. Lett; 63: 91-96) of the method described by Ohkawa et al. (Anal Biochem 1979; 95:315-58). Absorbance of the red 1:2 adduct malondialdehyde-thiobarbituric acid (Sigma-Aldrich, St Quentin-Fallavier, France) was measured at 532 nm (extinction coefficient used: 0.156 μmol^−1 cm^−1). The carbonyl contents in oxidized proteins (Prot CO) were assessed by the method of Levine et al. (Methods Enzymol 1990; 186:464-78). The non-protein sulfhydryl group content (mostly GSH) was taken as the anti-oxidant defense marker in homogenates and determined by the method of Sedlak and Lindsay (Anal Biochem 1968; 25(1):192-205).
Commercially available EIA kits were used for the determination of PGE2 levels (Oxford Biomedical Research, UK) and 15d-PGJ2 levels (Assay designs, Euromedex, France) in colonic supernatants obtained from fresh homogenates. Measurement of PGD2 levels was obtained using the prostaglandin D2-MOX EIA kit (Cayman Chemical, Euromedex). In this case, and prior to assay, the fresh samples were immediately treated with the MOX-HCl reagent which converted PGD2 into PGD2-MOX, thus preventing any further chemical degradation.
Total RNA from fresh colonic samples (300 mg) was extracted using Trizol Reagent (Invitrogen, Cergy-Pontoise, France). […]

As for `CC12CCC3C(C1CCC2=O)[C@@H](O)C[C@H]1C[C@@H](O)CCC31C` (stereo partly drawn) [Compound 7β-OH-EPIA, 7β-hydroxy-EPIAndrosterone], the “colitis damage and tissue inflammation” value (0.01 mg/kg) was “completely prevented”. Besides, the Body weight (0.01 mg/kg body weight i.p. day 0-7, day 14) is 297.5 ± 9.5^a g; the Body weight (0.1 mg/kg body weight i.p. day 0-7, day 14) is 272.1 ± 6^b g; the Body weight (1 mg/kg body weight i.p. day 0-7, day 14) was 267.3 ± 7.7^b g. In addition, the “DSS-induced production of colonic PGE2” value (0.01 mg/kg from D0 to D7) is “completely prevented”. Further, the “colonic level of 15d-PGJ2” value (0.01 mg/kg from D0 to D7, DSS) is “dramatically increasing”. Further, the Colon length is 16 ± 0.01^c cm (0.01 mg/kg, day 14); 15.6 ± 0.3^c cm (0.1 mg/kg, day 14); 14.2 ± 0.6^b cm (1 mg/kg, day 14). Further, the Epididymis weight (0.01 mg/kg, day 14) was 2.5 ± 0.03^a g; the Epididymis weight (0.1 mg/kg, day 14) is on record as 1.9 ± 0.14^b g; the Epididymis weight (1 mg/kg, day 14) is listed as 1.9 ± 0.1^b g. Besides, the Liver weight is 12.1 ± 0.3^a g (0.01 mg/kg, day 14); 12.3 ± 0.6^a g (0.1 mg/kg, day 14); 11.9 ± 0.4^a g (1 mg/kg, day 14). Besides, the Spleen weight is 0.8 ± 0.02^a g (0.01 mg/kg, day 14); 1.03 ± 0.2^a g (0.1 mg/kg, day 14); 0.82 ± 0.06^a g (1 mg/kg, day 14). Further, the “diarrhea and rectal bleeding” value (0.01, 0.1 mg/kg, day 14) is “suppression”. Besides, where the note is “all dose levels, 0.01, 0.1 and 1 mg/kg, vs colitis group”, the “MPO activity in colonic mucosa” value is recorded as “significantly decreased”. Besides, the “oxidative stress parameters (Prot CO, Tbars, GSH) in colonic tissue” value (day 13 and 14, all dose levels) is reported as “restored”. Also, the “increase in COX-2 and mPGES-1 mRNA synthesis by DSS” value (pre-treatment day 0 to day 7) is on record as “suppressed”.
